In BindingDB's records for doi:10.3109/14756366.2011.649269 (Università di Firenze, 2013):

Columns and labels:
Experiment in all cases: Carbonic Anhydrase I, II, IV and XII Assay
Conditions in all cases: pH 7.5; 25 °C
Carbonic anhydrase 12 = Carbonic anhydrase 12 (Homo sapiens, UniProt O43570)
Description: (§1) An Applied Photophysics stopped-flow instrument has been used for assaying the CA catalysed CO2 hydration activity [Khalifah et al., J. Biol. Chem., 246:2561-2573]. Phenol red (at a concentration of 0.2 mM) has been used as indicator, working at the absorbance maximum of 557 nm, with 10-20 mM Hepes (pH 7.5) as buffer, and 20 mM Na2SO4 (for maintaining constant the ionic strength), following the initial rates of the CA-catalyzed CO2 hydration reaction for a period of 10-100 s. The CO2 concentrations ranged from 1.7 to 17 mM for the determination of the kinetic parameters and inhibition constants. For each inhibitor at least six traces of the initial 5-10% of the reaction have been used for determining the initial velocity. The uncatalyzed rates were determined in the same manner and subtracted from the total observed rates. Stock solutions of inhibitor (10 mM) were prepared in distilled-deionised water and dilutions up to 0.01 nM were done thereafter with distilled-deionised water. Inhibitor and enzyme solutions were preincubated together for 15 min at room temperature prior to assay, in order to allow for the formation of the E-I complex.

Carbonic anhydrase 2 = Carbonic anhydrase 2 (Homo sapiens, UniProt P00918)
Description: as §1

Carbonic anhydrase 4 = Carbonic anhydrase 4 (Homo sapiens, UniProt P22748)
Carbonic anhydrase 4, sequence (P22748 whole entry): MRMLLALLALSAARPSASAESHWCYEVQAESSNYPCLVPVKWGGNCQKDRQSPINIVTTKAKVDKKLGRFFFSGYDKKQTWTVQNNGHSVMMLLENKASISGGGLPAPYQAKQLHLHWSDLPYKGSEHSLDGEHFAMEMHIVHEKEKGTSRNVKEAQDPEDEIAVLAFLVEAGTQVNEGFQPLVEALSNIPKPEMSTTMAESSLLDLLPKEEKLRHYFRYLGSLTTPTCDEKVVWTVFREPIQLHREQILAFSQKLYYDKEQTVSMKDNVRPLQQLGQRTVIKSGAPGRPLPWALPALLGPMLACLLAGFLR
Description: as §1

Carbonic anhydrase 1 = Carbonic anhydrase 1 (Homo sapiens, UniProt P00915)
Carbonic anhydrase 1, sequence (P00915 whole entry): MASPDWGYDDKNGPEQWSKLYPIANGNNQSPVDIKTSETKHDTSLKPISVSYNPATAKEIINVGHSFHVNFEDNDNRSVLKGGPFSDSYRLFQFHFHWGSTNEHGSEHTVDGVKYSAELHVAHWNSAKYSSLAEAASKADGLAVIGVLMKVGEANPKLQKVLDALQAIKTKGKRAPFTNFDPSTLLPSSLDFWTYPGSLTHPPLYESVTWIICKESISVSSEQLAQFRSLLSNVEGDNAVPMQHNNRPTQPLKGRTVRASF
Description: as §1

Carbonic anhydrase 12, sequence (O43570 whole entry): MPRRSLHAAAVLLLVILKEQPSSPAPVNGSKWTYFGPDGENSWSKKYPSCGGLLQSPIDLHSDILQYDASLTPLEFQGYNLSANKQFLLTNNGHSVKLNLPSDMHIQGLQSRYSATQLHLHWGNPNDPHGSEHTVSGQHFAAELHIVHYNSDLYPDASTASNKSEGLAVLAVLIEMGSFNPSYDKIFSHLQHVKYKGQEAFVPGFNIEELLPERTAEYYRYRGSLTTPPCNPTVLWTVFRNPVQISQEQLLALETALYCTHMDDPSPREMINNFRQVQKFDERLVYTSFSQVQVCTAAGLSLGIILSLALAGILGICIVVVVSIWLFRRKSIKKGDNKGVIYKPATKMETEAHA

Row | SMILES | IC50 (Carbonic anhydrase 12) [nM] | IC50 (Carbonic anhydrase 2) [nM] | IC50 (Carbonic anhydrase 4) [nM] | IC50 (Carbonic anhydrase 1) [nM]
1 | NS(=O)(=O)c1ccc(S(=O)(=O)NCCCN2CCOCC2)cc1 [N-(3-morpholinopropyl)benzene-1,4-disulfonamide (I-2)] | 517 | 65.8 | 499 | 57.7
2 | NS(=O)(=O)c1ccc(C(=O)NCCCN2CCOCC2)cc1 [4-Sulfamoyl-N-(3-morpholinopropyl)benzamide (I-1)] | 645 | 216 | 611 | 231
3 | CCN(CC)CCOc1ccc(CNS(=O)(=O)c2ccc(S(N)(=O)=O)cc2)cc1 [N-(4-diethylaminoethoxybenzyl)benzene-1,4-bis-sulfonamide (I-3)] | 737 | 81.1 | 508 | 59.8
